This note sets out measurements from patent US11866450B2, “Modulators of Cystic Fibrosis Transmembrane Conductance regulator, pharmaceutical compositions, methods of treatment, and process for making the modulators” (priority 2018, dated 2024).

For orientation: EC50 means the midpoint of the concentration-response curve.

Molecules are shown by their SMILES. Where only a bound is given, the exact number is not on record here.

For this test, the target named is CFTR-mediated chloride transport (Homo sapiens, UniProt P13569). Type of test: cell-based. To be noted: enteroid cells incubated with test compound 18-24 hours, acute 10 μM forskolin and 300 nM Compound III; for Max. Activity: % of chloride transport with 3 μM Compound A, 3 μM Compound II and 300 nM acute Compound III triple combination control. A digest of the protocol: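 Human intestinal enteroid cells incubated with compound 18–24 h at 37° C., then membrane potential dye (FLIPR) read 15 min after chloride-free stimulation with 10 μM forskolin, 100 μM IBMX and 300 nM Compound III. AUC expressed as % of triple-combination control (3 μM Compound A, 3 μM Compound II, 300 nM Compound III).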
CFTR-mediated chloride transport, sequence (P13569 whole entry, looked up): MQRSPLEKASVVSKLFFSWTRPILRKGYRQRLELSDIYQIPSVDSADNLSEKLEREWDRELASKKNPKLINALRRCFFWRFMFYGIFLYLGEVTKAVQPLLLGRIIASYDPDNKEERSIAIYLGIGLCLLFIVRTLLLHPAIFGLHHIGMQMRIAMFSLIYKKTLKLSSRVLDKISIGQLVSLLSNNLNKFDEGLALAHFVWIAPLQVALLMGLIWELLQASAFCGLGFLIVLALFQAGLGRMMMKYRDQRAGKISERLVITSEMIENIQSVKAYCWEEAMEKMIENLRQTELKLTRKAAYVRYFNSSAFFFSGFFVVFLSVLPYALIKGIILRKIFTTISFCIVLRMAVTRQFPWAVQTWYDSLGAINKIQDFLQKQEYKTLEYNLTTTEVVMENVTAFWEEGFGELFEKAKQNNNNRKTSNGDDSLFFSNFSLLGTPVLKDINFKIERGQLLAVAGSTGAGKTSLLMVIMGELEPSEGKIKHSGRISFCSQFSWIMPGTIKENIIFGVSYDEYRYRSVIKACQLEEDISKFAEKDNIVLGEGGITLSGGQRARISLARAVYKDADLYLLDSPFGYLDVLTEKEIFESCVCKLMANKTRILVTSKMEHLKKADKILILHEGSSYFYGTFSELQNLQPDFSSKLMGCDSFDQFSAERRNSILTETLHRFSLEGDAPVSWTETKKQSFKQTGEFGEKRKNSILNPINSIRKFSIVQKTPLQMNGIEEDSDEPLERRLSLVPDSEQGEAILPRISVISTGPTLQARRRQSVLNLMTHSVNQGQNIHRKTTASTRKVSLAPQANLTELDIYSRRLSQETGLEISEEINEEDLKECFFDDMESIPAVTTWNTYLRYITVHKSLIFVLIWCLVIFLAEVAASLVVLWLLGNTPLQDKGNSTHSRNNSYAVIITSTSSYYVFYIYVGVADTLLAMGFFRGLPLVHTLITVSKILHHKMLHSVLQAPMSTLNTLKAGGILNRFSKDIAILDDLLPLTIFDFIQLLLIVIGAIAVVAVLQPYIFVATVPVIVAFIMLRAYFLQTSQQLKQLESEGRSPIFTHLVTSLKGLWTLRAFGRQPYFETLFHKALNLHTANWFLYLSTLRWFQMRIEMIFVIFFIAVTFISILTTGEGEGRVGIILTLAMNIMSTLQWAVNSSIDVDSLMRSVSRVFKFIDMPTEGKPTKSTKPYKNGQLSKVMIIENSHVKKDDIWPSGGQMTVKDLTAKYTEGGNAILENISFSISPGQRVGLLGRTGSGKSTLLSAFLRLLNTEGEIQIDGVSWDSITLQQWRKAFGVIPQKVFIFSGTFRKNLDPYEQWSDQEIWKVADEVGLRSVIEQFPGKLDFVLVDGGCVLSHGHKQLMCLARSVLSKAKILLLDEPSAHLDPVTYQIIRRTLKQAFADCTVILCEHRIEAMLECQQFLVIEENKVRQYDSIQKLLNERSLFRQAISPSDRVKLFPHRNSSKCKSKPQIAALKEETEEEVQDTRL

Regarding `CC(C)(C)CCCN1CCN(c2ccc3c(n2)N2CC(CCCn4ccc(n4)S(=O)(=O)NC3=O)CC2(C)C)C1=O` (stereo not shown) [Compound 169, 4-[3-(4,4-dimethylpentyl)-2-oxoimidazolidin-1-yl]-20,20-dimethyl-10λ^6-thia-1,3,9,14,22-pentaazatetracyclo[16.2.1.111,14.02,7]docosa-2,4,6,11(22),12-pentaene-8,10,10-trione], the EC50 is below 1000 nM and the “Max. Activity” value was “++ (++ is 30-60%)”.
Regarding `CC1(C)C[C@H]2CCCn3ccc(n3)S(=O)(=O)NC(=O)c3ccc(-n4ccc(OCCC5C6(CC6)C56CC6)n4)nc3N1C2` [Compound 186, (18R)-4-[3-(2-{dispiro[2.0.2.1]heptan-7-yl}ethoxy)-1H-pyrazol-1-yl]-20,20-dimethyl-10λ^6-thia-1,3,9,14,22-pentaazatetracyclo[16.2.1.111,14.02,7]docosa-2,4,6,11(22),12-pentaene-8,10,10-trione], the EC50 is below 1000 nM and the “Max. Activity” value is reported as “+ (+ is <30%)”.
In the case of `CC(C)(C)CCCN1CCN(c2ccc3c(n2)N2C[C@@H](CCCNc4cccc(n4)S(=O)(=O)NC3=O)CC2(C)C)C1=O` [Compound 193, (14S)-8-[3-(4,4-dimethylpentyl)-2-oxoimidazolidin-1-yl]-12,12-dimethyl-2λ^6-thia-3,9,11,18,23-pentaazatetracyclo[17.3.1.111,14.05,10]tetracosa-1(22),5,7,9,19(23),20-hexaene-2,2,4-trione], the EC50 was below 1000 nM and the “Max. Activity” value is listed as “+++ (+++ is >60%)”.
In the case of `CC1(C)C[C@@H]2CCCNc3cccc(n3)S(=O)(=O)NC(=O)c3ccc(N4CCN(C5CCCCC5)C4=O)nc3N1C2` [Compound 200, (14S)-8-(3-cyclohexyl-2-oxoimidazolidin-1-yl)-12,12-dimethyl-2λ^6-thia-3,9,11,18,23-pentaazatetracyclo[17.3.1.111,14.05,10]tetracosa-1(22),5,7,9,19(23),20-hexaene-2,2,4-trione], the EC50 is below 1000 nM and the “Max. Activity” value is given as “+ (+ is <30%)”.
The corresponding values for `CC1(C)C[C@@H]2CCCNc3cccc(n3)S(=O)(=O)NC(=O)c3ccc(N4CCN(CCCC5(C(F)(F)F)CC5)C4=O)nc3N1C2` [Compound 205, (14S)-12,12-Dimethyl-8-(2-oxo-3-{3-[1-(trifluoromethyl)cyclopropyl]propyl}imidazolidin-1-yl)-2λ^6-thia-3,9,11,18,23-pentaazatetracyclo[17.3.1.111,14.05,10]tetracosa-1(22),5,7,9,19(23),20-hexaene-2,2,4-trione] are below 1000 nM and “+++ (+++ is >60%)”.
On to `CC1CCC2CN(c3nc(N4CCN(CCC(C)(C)C)C4=O)ccc3C(=O)NS(=O)(=O)c3cccc(n3)N1)C(C)(C)C2` (stereo not shown) [Compound 209, 8-[3-(3,3-Dimethylbutyl)-2-oxoimidazolidin-1-yl]-12,12,17-trimethyl-2λ^6-thia-3,9,11,18,23-pentaazatetracyclo[17.3.1.111,14.05,10]tetracosa-1(22),5,7,9,19(23),20-hexaene-2,2,4-trione], for which the 50% effective concentration (EC50) is below 1000 nM and the “Max. Activity” value is “++ (++ is 30-60%)”.
For `CC1CCC2CN(c3nc(N4CCN(CCC(C)(C)C)C4=O)ccc3C(=O)NS(=O)(=O)c3cccc(n3)N1)C(C)(C)C2` (stereo not shown) [Compound 210, 8-[3-(3,3-dimethylbutyl)-2-oxoimidazolidin-1-yl]-12,12,17-trimethyl-2λ^6-thia-3,9,11,18,23-pentaazatetracyclo[17.3.1.111,14.05,10]tetracosa-1(22),5,7,9,19(23),20-hexaene-2,2,4-trione], in that order: below 1000 nM and “++ (++ is 30-60%)”.
For `CC1(C)C[C@@H]2CCCNc3cccc(n3)S(=O)(=O)NC(=O)c3ccc(N4CCN(CCC5(C(F)(F)F)CC5)C4=O)nc3N1C2` [Compound 211, (14S)-12,12-Dimethyl-8-(2-oxo-3-{2-[1-(trifluoromethyl)cyclopropyl]ethyl}imidazolidin-1-yl)-2λ^6-thia-3,9,11,18,23-pentaazatetracyclo[17.3.1.111,14.05,10]tetracosa-1(22),5,7,9,19(23),20-hexaene-2,2,4-trione], in that order: below 1000 nM and “++ (++ is 30-60%)”.
Turning to `CC1(C)C[C@@H]2CCCNc3cccc(n3)S(=O)(=O)NC(=O)c3ccc(N4CC5CCCCN5C4=O)nc3N1C2` (stereo partly drawn) [Compound 213, (14S)-12,12-dimethyl-8-{3-oxo-octahydroimidazo[1,5-a]pyridin-2-yl}-2λ^6-thia-3,9,11,18,23-pentaazatetracyclo[17.3.1.111,14.05,10]tetracosa-1(23),5(10),6,8,19,21-hexaene-2,2,4-trione], the EC50 was above 3000 nM and the “Max. Activity” value is listed as “+ (+ is <30%)”.
The corresponding values for `CC1(C)C[C@@H]2CCCNc3cccc(n3)S(=O)(=O)NC(=O)c3ccc(N4CCN(CC5CCC(F)(F)CC5)C4=O)nc3N1C2` [Compound 214, (14S)-8-{3-[(4,4-Difluorocyclohexyl)methyl]-2-oxoimidazolidin-1-yl}-12,12-dimethyl-2λ^6-thia-3,9,11,18,23-pentaazatetracyclo[17.3.1.111,14.05,10]tetracosa-1(22),5,7,9,19(23),20-hexaene-2,2,4-trione] are below 1000 nM and “++ (++ is 30-60%)”.
For the compound `CC1(C)CCC(CN2CCN(c3ccc4c(n3)N3C[C@@H](CCCNc5cccc(n5)S(=O)(=O)NC4=O)CC3(C)C)C2=O)CC1` [Compound 217, (14S)-8-{3-[(4,4-Dimethylcyclohexyl)methyl]-2-oxoimidazolidin-1-yl}-12,12-dimethyl-2λ^6-thia-3,9,11,18,23-pentaazatetracyclo[17.3.1.111,14.05,10]tetracosa-1(22),5,7,9,19(23),20-hexaene-2,2,4-trione], the EC50 was below 1000 nM and the “Max. Activity” value is on record as “++ (++ is 30-60%)”.
For `CC1(C)C[C@@H]2CCCNc3cccc(n3)S(=O)(=O)NC(=O)c3ccc(N4CCC5(CCCCC5)C4=O)nc3N1C2` [Compound 222, (14S)-12,12-dimethyl-8-{1-oxo-2-azaspiro[4.5]decan-2-yl}-2λ^6-thia-3,9,11,18,23-pentaazatetracyclo[17.3.1.111,14.05,10]tetracosa-1(22),5,7,9,19(23),20-hexaene-2,2,4-trione], in that order: below 1000 nM and “++ (++ is 30-60%)”.
For `CC1(C)C[C@@H]2CCCNc3cccc(n3)S(=O)(=O)NC(=O)c3ccc(N4CCN(CCC(C)(C)C(F)(F)F)C4=O)nc3N1C2` [Compound 223, (14S)-12,12-Dimethyl-8-[2-oxo-3-(4,4,4-trifluoro-3,3-dimethylbutyl)imidazolidin-1-yl]-2λ^6-thia-3,9,11,18,23-pentaazatetracyclo[17.3.1.111,14.05,10]tetracosa-1(22),5,7,9,19(23),20-hexaene-2,2,4-trione], in that order: below 1000 nM and “+++ (+++ is >60%)”.
For `CC1(C)C[C@@H]2CCCNc3cccc(n3)S(=O)(=O)NC(=O)c3ccc(N4CCN(CC(C)(C)C(F)(F)F)C4=O)nc3N1C2` [Compound 225, (14S)-12,12-dimethyl-8-[2-oxo-3-(3,3,3-trifluoro-2,2-dimethylpropyl)imidazolidin-1-yl]-2λ^6-thia-3,9,11,18,23-pentaazatetracyclo[17.3.1.111,14.05,10]tetracosa-1(22),5,7,9,19(23),20-hexaene-2,2,4-trione], in that order: below 1000 nM and “++ (++ is 30-60%)”.
